# In patent US5593970A, “Heterocyclic anthracycline analogs” (priority 1994, dated 1997):
# pIC50: −log10 of the molar value. Counter-ions that a name gives are not always drawn.
# Legend:
# LOX = assay: Microculture tetrazolium assay; assay type: cell-based; conditions: read-out: IC50
# tumor cell lines = assay: NCI sulforhodamine B assay, all cell lines; conditions: for CC50 / IC100 / GI50: Homo sapiens; for CC50 / IC100: 48 h; for CC50: read-out: Log10 LC50, Mean / MG-MID, all cell lines (converted); for IC100: read-out: Log10 TGI, Mean / MG-MID, all cell lines; for GI50: read-out: Log10 GI50, Mean / MG-MID, all cell lines (converted)
# HT29 = assay: Microculture tetrazolium assay; assay type: cell-based; conditions: Homo sapiens, HT-29, HT29; read-out: IC50
# SKVLB = assay: Microculture tetrazolium assay; assay type: cell-based; conditions: for VLB/OV3: IC50 ratio SKVLB/SKOV3; for pIC50: SKVLB, read-out: IC50
# MATB/ADR = assay: Soft agar colony formation disk diffusion assay; assay type: cell-based, rat
# How it was run: (§1)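 Cells from solid tumours or ascitic fluid (murine lines maintained in vivo, assayed in vitro) were suspended in 0.4% Noble agar over a 0.8% agar base. Compound dissolved in DMSO was applied on a 6.5 mm paper disk. After 10-20 days at 37° C., the inhibition zone from disk edge to nearest colony was measured microscopically.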
# MATB.WT = assay: Soft agar colony formation disk diffusion assay; assay type: cell-based, rat
# How it was run: as §1
# T47D = assay: Microculture tetrazolium assay; assay type: cell-based; conditions: Homo sapiens, read-out: IC50
# SKOV3 = assay: Microculture tetrazolium assay; assay type: cell-based; conditions: Homo sapiens, SK-OV-3, SKOV3; read-out: IC50
# LS180 = assay: Soft agar colony formation disk diffusion assay; assay type: cell-based, human
# How it was run: (§2)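 Cells in 0.4% Noble agar top layer over 0.8% agar base; compound in DMSO/water applied on 6.5 mm filter disk. Incubated 37 °C, 5% CO2 for 10–20 days. Activity measured as inhibition zone from disk edge to nearest colonies (>50 cells), by ocular micrometer.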
# MCF7/ADR = assay: Soft agar colony formation disk diffusion assay; assay type: cell-based, human
# How it was run: as §2
# MCF7 = assay: Soft agar colony formation disk diffusion assay; assay type: cell-based, human
# How it was run: as §2
Compound,pIC50 (LOX),CC50 (tumor cell lines),IC100 (tumor cell lines),GI50 (tumor cell lines),pIC50 (HT29),VLB/OV3 (SKVLB),pIC50 (SKVLB),zone of inhibition (MATB/ADR; 10 μg/DISK),zone of inhibition (MATB/ADR; 100 μg/DISK),zone of inhibition (MATB.WT; 10 μg/DISK),zone of inhibition (MATB.WT; 100 μg/DISK),pIC50 (T47D),pIC50 (SKOV3),zone of inhibition (LS180; 10 μg/DISK),zone of inhibition (LS180; 100 μg/DISK),zone of inhibition (MCF7/ADR; 10 μg/DISK),zone of inhibition (MCF7/ADR; 100 μg/DISK),zone of inhibition (MCF7; 10 μg/DISK),zone of inhibition (MCF7; 100 μg/DISK),antiproliferative and cytotoxic activity in words (tumor cell lines)
"COC(=O)[C@@H]1CC2=C(C(=O)c3c(c(OC)c4ccccc4c3O)C2=O)[C@@H](O[C@H]2C[C@H](NC(=O)C(F)(F)F)[C@H](O)[C@H](C)O2)O1 (mixture of isomers) [BCH-674, (1'S,1S,3R) and 1'S,1R,3S) Methyl(11-hydroxy-6-methoxy-1-[2',3',6'-trideoxy-3-trifluoroacetamido-4'-hydroxy-L-lyxohexopyranose]-5,12-dioxo-3,4,5,12-tetrahydroanthra-ceno[2,3-c]pyran-3-yl) formate]",5.69,67.6 µM,30.2 µM,12.3 µM,5.18,0.91,5.17,24.4 ± 8.6 Zone Units,213.5 ± 25.8 Zone Units,30.5 ± 13.0 Zone Units,198.2 ± 21.5 Zone Units,5.38,5.13,0 Zone Units,67.1 ± 8.6 Zone Units,0 Zone Units,339.6 ± 4.3 Zone Units,0 Zone Units,76.2 ± 21.6 Zone Units,–
"COC(=O)[C@H]1CC2=C(C(=O)c3c(c(OC)c4ccccc4c3O)C2=O)[C@H](O[C@H]2C[C@H](NC(=O)C(F)(F)F)[C@H](O)[C@H](C)O2)O1 (mixture of isomers) [BCH-675, (1'S,1S,3R) and 1'S,1R,3S) Methyl(11-hydroxy-6-methoxy-1-[2',3',6'-trideoxy-3-trifluoroacetamido-4'-hydroxy-L-lyxohexopyranose]-5,12-dioxo-3,4,5,12-tetrahydroanthra-ceno[2,3-c]pyran-3-yl) formate]",5.37,57.5 µM,21.4 µM,7.94 µM,5.28,0.43,5.40,22.3 ± 3.5 Zone Units,59.4 ± 8.6 Zone Units,0 Zone Units,32.5 ± 9.3 Zone Units,5.55,5.04,0 Zone Units,148.4 ± 31.3 Zone Units,0 Zone Units,26.3 ± 14.0 Zone Units,0 Zone Units,30.5 ± 10.5 Zone Units,–
"CCOC(=O)C1CC2=C(CO1)C(=O)c1c(cc3ccccc3c1O)C2=O (stereo not drawn) [BCH-651, Ethyl(6 and 11 hydroxy-5,12-dioxo-3,4,5,12-tetrahydro-anthraceno[2,3-c]pyran-3-yl)]formate]",4.66,58.9 µM,21.4 µM,5.5 µM,4.77,1.13,4.63,0 Zone Units,100.0 Zone Units,0 Zone Units,36.6 ± 8.6 Zone Units,4.44,4.68,0 Zone Units,76.2 ± 21.5 Zone Units,10.0 ± 5.0 Zone Units,131.1 ± 30.1 Zone Units,–,115.9 ± 8.6 Zone Units,strong antiproliferative (GI50) and potent cytotoxic (LC50) activities
